# Peptide text beside a SMILES is read from it.
# Columns and labels:
# [1] = system: Neonatal foreskin primary human epidermal melanocytes; assay: Cell viability by the calcein method; type: cell-based
# Method: (§1) All test compounds were purchased from SIGMA-ALDRICH as stocks of 10 mM in 100% DMSO. They were tested at various concentrations in cell culture (see below). Forskolin (SIGMA Cat. #F6886) and IBMX (SIGMA Cat. #I5879) were used as reference comparators, as they have been reported to increase melanin content. Neonatal foreskin primary human epidermal melanocytes were procured from Cascade Biologicals (labelled passage P0). Melanocytes were maintained in Medium 254CF (Cascade Cat. #M-254CF-500) supplemented with human melanocyte growth supplement (Cascade; Cat. #S-002-5), hereafter referred to as MGM. Cells were maintained at 37° C. in a humidified incubator with 5% CO2 atmosphere.
# (§2) 50,000 cells were seeded in 24 well plate in MGM; after 24 hours, cultures were treated with various concentrations of the test materials and left undisturbed for a further period of 72 hours. Comparative vehicle controls of 0.25% (v/v) DMSO were also set up in parallel, simultaneously. At the end of the incubation period, cell viability was determined using the calcein method.
# Briefly, cell culture spent media was removed and cells washed once with 0.4 ml of 1×PBS—Ca—Mg solution. Fresh 1 μM calcein-AM was added (0.2 ml/well), including to control wells without cells. Plates were covered with aluminium foil and incubated for 30 minutes. at 37° C. in the regular CO2 incubator. Calcein fluorescence was then measured (λmax 490 nm and λmax 520 nm) in TECAN® M1000 Infinite series plate reader.
# (§3) Calcein fluorescence values were ratio converted in 0 to 100 scale (% viability), with 100 representing the value of the 0.25% DMSO sample. % Melanin content was calculated as the ratio between OD405nm value of any sample to that of DMSO reference sample. Normalized melanin content value was then calculated as 100*(% Melanin Content)/(% Cellular viability).
# [2] = system: Neonatal foreskin primary human epidermal melanocytes; assay: Melanin content assay (OD405 nm of cell lysate); type: cell-based; conditions: for % Increase in Melanin / % Melanin / Normalized melanin content / OD405 nm / Normalized melanin content at 0.25 µM: 72 hours; for Normalized melanin content at 0.25 µM: Homo sapiens, Melanocyte, read-out: Normalized melanin content, 100*(% Melanin Content)/(% Cellular viability); for Increase in melanin content of melanocytes (in words): data of Table 2
# Method: as §1, §2
# After calcein fluorescence readings were obtained, cells were drained and added fresh 125 μl of 1N NaOH (in 10% DMSO) per well. Cells were lysed by resuspension and incubation (60° C./1 hour). Then this lysate was transferred to a fresh […] and measured OD405 nm in a TECAN M1000 plate reader (estimate of relative melanin content).
# as §3
# The percentage Increase in melanin content was estimated as [(Normalized melanin content)−100]
# Tyrosinase = target: T1, Tyrosinase (Homo sapiens, UniProt P14679); assay: Tyrosinase assay; type: biochemical; conditions: 0.25 μM
# T1 sequence (P14679 19-529): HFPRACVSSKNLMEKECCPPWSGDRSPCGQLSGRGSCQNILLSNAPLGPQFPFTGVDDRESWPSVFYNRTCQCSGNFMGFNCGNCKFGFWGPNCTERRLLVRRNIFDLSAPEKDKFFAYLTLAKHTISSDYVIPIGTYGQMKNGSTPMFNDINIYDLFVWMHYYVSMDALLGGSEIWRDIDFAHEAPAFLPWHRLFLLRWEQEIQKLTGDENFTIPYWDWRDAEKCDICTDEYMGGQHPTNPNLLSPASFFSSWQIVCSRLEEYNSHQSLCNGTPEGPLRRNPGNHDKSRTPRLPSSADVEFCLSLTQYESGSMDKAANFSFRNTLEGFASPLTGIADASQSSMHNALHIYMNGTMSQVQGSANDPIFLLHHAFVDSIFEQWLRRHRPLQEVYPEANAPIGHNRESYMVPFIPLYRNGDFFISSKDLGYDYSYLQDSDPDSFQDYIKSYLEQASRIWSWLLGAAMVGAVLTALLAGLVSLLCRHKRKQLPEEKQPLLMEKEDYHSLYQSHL
# [3] = 0.25 μM, relative to DMSO control
# [4] = 0.25 μM, normalized melanin content minus 100
Compound,"% Viability ([1]; human, 72 h, 12.5 μM) [%]","% Viability ([1]; human, 72 h, 25 μM) [%]","% Viability ([1]; human, 72 h, 50 μM) [%]",% Increase in Melanin ([2]; 12.5 μM) [%],% Melanin ([2]; 12.5 μM) [%],Normalized melanin content ([2]; 12.5 μM),"OD405 nm ([2]; 12.5 μM, control 0.165)",% Increase in Melanin ([2]; 25 μM) [%],% Melanin ([2]; 25 μM) [%],Normalized melanin content ([2]; 25 μM),"OD405 nm ([2]; 25 μM, control 0.165)",% Increase in Melanin ([2]; 50 μM) [%],% Melanin ([2]; 50 μM) [%],Normalized melanin content ([2]; 50 μM),"% Viability ([1]; human, 72 h, 0.25 μM) [%]","% Melanin [2, 3] [%]","OD405 nm ([2]; 0.25 μM, control 0.113)","% Increase in Melanin [2, 4] [%]",Normalized melanin content at 0.25 µM ([2]; 0.25 μM) [%],% increase in Tyrosinase activity (Tyrosinase) [%],also measured
"C=C[C@@]1(C)CC(=O)[C@]2(O)[C@@]3(C)[C@@H](O)CCC(C)(C)[C@@H]3[C@H](O)[C@H](OC(C)=O)[C@@]2(C)O1 [Forskolin, reference compound]",,,,,,,,,,,,,,,,,,,,,"% Viability ([1]; 2.5 μM, 72 hours): 95.6%; % Viability ([1]; 5 μM, 72 hours): 94.8%; % Viability ([1]; 10 μM, 72 hours): 90.5%; % Increase in Melanin ([2]; 2.5 μM): 16.6%; % Melanin ([2]; 2.5 μM): 111.5%; Normalized melanin content ([2]; 2.5 μM): 116.6; OD405 nm ([2]; 2.5 μM, control 0.165): 0.184; % Increase in Melanin ([2]; 5 μM): 29.2%; % Melanin ([2]; 5 μM): 122.5%; Normalized melanin content ([2]; 5 μM): 129.2; OD405 nm ([2]; 5 μM, control 0.165): 0.202; % Increase in Melanin ([2]; 10 μM): 36.7%; % Melanin ([2]; 10 μM): 123.7%; Normalized melanin content ([2]; 10 μM): 136.7; OD405 nm ([2]; 10 μM, control 0.165): 0.204"
"CC(C)Cn1c(=O)n(C)c(=O)c2[nH]cnc21 [IBMX, 3-isobutyl-1-methylxanthine, reference compound]",100.1,95.2,91.0,16.6,116.7,116.6,0.193,24.8,118.8,124.8,0.196,28.2,116.7,128.2,,,,,,,"OD405 nm ([2]; 50 μM, control 0.165): 0.193"
"O=C(N[C@@H](CO)C(=O)N[C@@H](Cc1ccc(O)cc1)C(=O)OCc1ccccc1)OCc1ccccc1 [Compound 1, Benzyl (2S)-2-[((2S)-2-{[(benzyloxy)carbonyl]amino}-3-hydroxypropanoyl)amino]-3-(4-hydroxyphenyl)propanoate.] (HELM PEPTIDE1{[O=C(OCc1ccccc1)[*:2]].S.Y.[c1ccc(CO[*:1])cc1]}$$$$V2.0)",88.7,90.0,,33.3,118.2,133.3,0.195,34.0,120.6,134.0,0.199,,,,107,135.4,0.153,26.5,126,3.5,"% Viability ([1]; human, 72 h, 3.125 μM): 91.0%; % Viability ([1]; human, 72 h, 6.25 μM): 95.5%; % Increase in Melanin ([2]; 3.125 μM): 17.9%; % Melanin ([2]; 3.125 μM): 107.3%; Normalized melanin content ([2]; 3.125 μM): 117.9; OD405 nm ([2]; 3.125 μM, control 0.165): 0.177; % Increase in Melanin ([2]; 6.25 μM): 20.6%; % Melanin ([2]; 6.25 μM): 115.2%; Normalized melanin content ([2]; 6.25 μM): 120.6; OD405 nm ([2]; 6.25 μM, control 0.165): 0.190"
"CSCC[C@H](NC(=O)OCc1ccccc1)C(=O)N[C@@H](Cc1c[nH]c2ccccc12)C(=O)O [Compound 3, (2S)-2-{[(2S)-2-{[(benzyloxy)carbonyl]amino}-4-(methylthio)butanoyl]amino}-3-(1H-indol-3-yl)propanoic acid] (HELM PEPTIDE1{[O=C(OCc1ccccc1)[*:2]].M.W}$$$$V2.0)",,,,,,,,,,,,,,,99,106.2,0.120,7.3,107,1.8,Increase in melanin content of melanocytes (in words) [2]: not
"C[C@@H](O)[C@H](NC(=O)OCc1ccccc1)C(=O)N[C@@H](Cc1ccc(O)cc1)C(N)=O [Compound 4, Benzyl (1S,2R)-1-({[(1S)-2-amino-1-(4-hydroxybenzyl)-2-oxoethyl]amino}carbonyl)-2-hydroxypropylcarbamate.] (HELM PEPTIDE1{[O=C(OCc1ccccc1)[*:2]].T.Y.[am]}$$$$V2.0)",,,,,,,,,,,,,,,110,102.7,0.116,−6.6,93.4,0.8,
"CC(C)[C@H](NC(=O)OCc1ccccc1)C(=O)N[C@@H](Cc1ccc(O)cc1)C(N)=O [Compound 2, Benzyl (1S)-1-({[(1S)-2-amino-1-(4-hydroxybenzyl)-2-oxoethyl]amino}carbonyl)-2-methylpropylcarbamate] (HELM PEPTIDE1{[O=C(OCc1ccccc1)[*:2]].V.Y.[am]}$$$$V2.0)",95.8,92.5,100.6,26.5,121.2,126.5,0.200,42.2,131.5,142.2,0.217,25.8,126.6,125.8,81,110.6,0.125,36.5,136,2.0,"% Viability ([1]; human, 72 h, 1.5 μM): 91.3%; % Viability ([1]; human, 72 h, 3.125 μM): 90.5%; % Viability ([1]; human, 72 h, 6.25 μM): 99.8%; % Increase in Melanin ([2]; 1.5 μM): 16.9%; % Melanin ([2]; 1.5 μM): 106.7%; Normalized melanin content ([2]; 1.5 μM): 116.9; OD405 nm ([2]; 1.5 μM, control 0.165): 0.176; % Increase in Melanin ([2]; 3.125 μM): 23.2%; % Melanin ([2]; 3.125 μM): 111.5%; Normalized melanin content ([2]; 3.125 μM): 123.2; OD405 nm ([2]; 3.125 μM, control 0.165): 0.184; % Increase in Melanin ([2]; 6.25 μM): 14.7%; % Melanin ([2]; 6.25 μM): 114.5%; Normalized melanin content ([2]; 6.25 μM): 114.7; OD405 nm ([2]; 6.25 μM, control 0.165): 0.189; OD405 nm ([2]; 50 μM, control 0.165): 0.209; Increase in melanin content of melanocytes (in words) [2]: substantial increase in melanin content; Extent of increase in melanin content versus reference molecules (in words) ([2]; data of Table 3): comparable to known standard reference molecules (Forskolin and IBMX)"
